Assay results as given in patent publication US20180256519A1, “COMPOSITION FOR PREVENTING OR TREATING MITOCHONDRIAL DISEASES CAUSED BY IMMUNOSUPPRESSANTS, AND IMMUNE DISEASES, CONTAINING METFORMIN” (THE CATHOLIC UNIVERSITY OF KOREA INDUSTRY-ACADEMIC …, priority 2015, published 2018).

Legend:
[1] = tested on: LPS-stimulated splenocytes; assay: Inflammatory cytokines secreted in LPS-stimulated splenocytes (ELISA); format: cell-based, C57BL/6 mice; conditions: LPS 100 ng/ml; metformin 1000 uM, rapamycin 100 nM; 3 days
Procedure: Splenocytes obtained from normal C57BL/6 mice were added into a 24-well plate (1×10^6 cells/well), and stimulated by LPS (100 ng/ml), and then treated with metformin (1000 uM) or rapamycin (100 nM) according to experimental conditions, followed by incubation for 3 days. […] Statistical analysis was conducted by using Graph prism (t-test, ANOVA), and values of p<0.05 were considered statistically significant.

[2] = tested on: allogeneic reactive T cells; assay: Allogeneic reactive T cell proliferation, mixed lymphocyte reaction ([3H]-thymidine uptake); format: cell-based, mouse (Balb/c, C57BL/6); conditions: metformin 1000 uM, rapamycin 1 nM or 100 nM; 3 days
Procedure: CD4+ T cells (2×10^5 cells/well) from normal donors (Balb/c, responder) and splenocytes (2×10^5 cells/well) with T cells removed, which were derived from irradiated recipients (syngeneic) or donors (C57BL/ 6, stimulator, allogeneic), were added to each well of a 96-well plate, followed by mixed incubation. Here, for the allogeneic reaction, the cells were treated with metformin (1000 uM) and rapamycin (1 nM or 100 nM) according to experimental conditions, followed by incubation for 3 days. On the last day of the incubation, [^3H]-thymidine was added, followed by additional incubation for 18 hours, and the [^3H]-thymidine uptake of cells was measured by the Liquid Scintillation Counter (Beckman, USA), and expressed as cpm. Statistical assay was conducted by using Graph prism (t-test, ANOVA), and values of p<0.05 were considered statistically significant.

IL-17 = IL-17 secretion by splenocytes in T cell activation conditions (ELISA); format: cell-based, C57BL/6 mice; conditions: metformin 1000 uM, rapamycin 100 nM; 3 days; anti-CD3 0.5 μg/ml; vs Nil
Procedure: (§1) Splenocytes obtained from normal C57BL/6 mice were added at 2×10^5 cells in the 96-well plate, and treated with metformin (1000 μM) or rapamycin (100 nM) according to experimental conditions, followed by incubation for 3 days, under anti-CD3 activation conditions (0.5 μg/ml). For MTT analysis, 3-(4,5-dimethyl-thiazol-2-yl)-2,5-diphenyltetrazolium bromide was added 4 hours before cell harvest, followed by incubation for 4 hours, and then each well was treated with DMSO, and the absorbance was measured at the wavelength of 540 nm.
The cells were treated with metformin (1000 uM) or rapamycin (100 nM) according to experimental conditions, followed by incubation for 3 days, and then the amount of IL-17 present in the culture liquid was measured by ELISA.

[3] = tested on: Splenocytes obtained from normal C57BL/6 mice; assay: MTT non-specific cytotoxicity in T cell activation conditions; format: cell-based; conditions: metformin 1000 μM, rapamycin 100 nM; 3 days; anti-CD3 0.5 μg/ml
Procedure: as §1

[4] = tested on: LPS-stimulated splenocytes; assay: Immunoglobulin (IgG) in culture liquid of LPS-stimulated splenocytes (ELISA); format: cell-based, mouse; conditions: LPS 100 ng/ml; metformin 1000 uM, rapamycin 100 nM
Procedure: Splenocytes obtained from normal C57BL/6 mice were added into a 24-well plate (1×10^6 cells/well), and stimulated by LPS (100 ng/ml), and then treated with metformin (1000 uM) or rapamycin (100 nM) according to experimental conditions, followed by incubation for 3 days. […] Statistical analysis was conducted by using Graph prism (t-test, ANOVA), and values of p<0.05 were considered statistically significant.
Thereafter, the level of IgG present in the culture liquid was measured by ELISA.

Treg cells = assay: Treg cell activity in splenocytes under anti-CD3 activation (flow cytometry); format: cell-based, C57BL/6 mice; conditions: metformin 1000 μM, rapamycin 100 nM; 3 days; anti-CD3 0.5 μg/ml
Procedure: Splenocytes obtained from normal C57BL/6 mice were added at 1×10^6 cells in the 24-well plate, and treated with metformin (1000 μM) or rapamycin (100 nM) according to experimental conditions, followed by incubation for 3 days, under anti-CD3 activation conditions (0.5 μg/ml). For flow cytometry, the cells were treated with anti-CD4-percp antibody and anti-CD25-APC antibody, followed by incubation at 4[…] for 30 minutes, and then the cells were subjected to permeabilization, and then reacted with anti-Foxp3-PE. For analysis of Treg activity, the cells expressing the CD4+CD25+Foxp3+ marker were gated and analyzed. The results were expressed by a bar graph showing the proportion of Foxp3+CD25+ cells occupying in the cultured all CD4+ cells.

IFN-γ = IFN-γ secretion by allogeneic reactive T cells in mixed lymphocyte reaction (ELISA); format: cell-based, mouse (Balb/c, C57BL/6); conditions: metformin 1000 μM, rapamycin 1 nM or 100 nM; 3 days
[5] = tested on: collagen-induced arthritis mouse models; assay: Glucose tolerance test and insulin tolerance test in arthritis animal models; format: in vivo; conditions: arthritis mice after 12 weeks, rapamycin 1 mg/kg
Procedure: The intraperitoneal glucose tolerance test was performed by intraperitoneal injection of glucose at 1 g/kg of body weight after fasting for 12 hours. The insulin tolerance test was performed at 30 minutes interval after the subcutaneous injection of […] at 1 U/kg of body weight.

Sprague-Dawley rats = assay: Rapamycin-induced diabetic symptoms and metformin co-administration in rats (body weight, urine volume, IPGTT, ITT); format: in vivo, rat
Procedure: As experimental animals, Sprague-Dawley rats with 200-220 grams were used. The animals were fed with a 0.05% low-salt diet, and the experiment was conducted for a total of 6 weeks while drugs were administered according to experimental conditions (FIG. 5). […] Rapamycin dissolved in olive oil was subcutaneously injected into the rapamycin administered alone group (Rapamycin) and the co-administered group (Rapa+Met) at a dose of 0.3 mg/kg of body weight every day for six weeks. Metformin was orally administered at a dose of 250 mg/kg of body weight every day for 2.5 weeks from the 3.5 weeks of rapamycin administration. Distilled water (DW, 3 mL/kg) instead of metformin was orally administered into the rapamycin administered alone group and the control group. The body weight and 24-hr urine volume of the control and experimental groups were measured six weeks after the start of the experiment FIGS. 6A and 6B. The urine volume was measured in the metabolic cage. The animals of each group were tested for the intraperitoneal glucose tolerance test (IPGTT) and the insulin tolerance test (ITT), and the change in blood glucose level over time was observed FIGS. 7A, 7B, 8A and 8B). The intraperitoneal glucose tolerance test (IPGTT) was performed by intraperitoneal administration of 1.5 g/kg of body weight of glucose after fasting. The insulin resistance test was carried out such that the blood glucose level was measured at 30-min intervals after subcutaneous injection of insulin at 0.8 U/kg of body weight following 5-hr fasting. The quantitative index (area under the curve of glucose, AUCg) was derived using a graph of blood glucose level change per hour, and was expressed as a bar graph. Data were expressed as mean value±standard deviation, and statistical significance was determined by student's t-test.

[6] = tested on: Synovial cells isolated from patients with rheumatoid arthritis (RA); assay: Measurement of mitochondrial respiration (oxygen consumption rate); format: cell-based, human; conditions: rapamycin 100 nM
Procedure: The present inventors examined the effect of metformin on rapamycin-induced mitochondrial respiration deterioration. The cells were treated with rapamycin (100 nM) alone or co-treated with rapamycin (100 nM) and metformin (1 mM), and then the mitochondrial respiratory rate was examined through the measurement of the oxygen consumption rate. Oligomycin and FCCP treatment conditions were the same.

NIH3T3 cells [7] = assay: Analysis of mitochondrial membrane potential (JC-1 staining); format: cell-based; conditions: 72-hr incubation; rapamycin 1 nM, metformin 200 uM or 1 mM
Procedure: For JC-1 staining, the cells were incubated in JC-1, which had been diluted in DMEM to a final concentration of 100 nM, at 37 °C for 15 minutes, and then the exchange into new DMEM medium was conducted, followed by observation by fluorescent microscopy.

NIH3T3 cells [8] = assay: Analysis of mitochondrial content (MitoTracker staining); format: cell-based; conditions: 72-hr incubation; rapamycin 1 nM, metformin 200 uM or 1 mM
Procedure: The mitochondria were observed by fluorescent microscopy for each experimental condition. Specifically, the MitoTracker was diluted in DMEM medium to a concentration of 100 nM, and then added on the NIH3T3 plate, followed by incubation at 37° C. for 15 minutes and washing with PBS. Thereafter, for α-tubulin staining, the cells were fixed with acetone and methanol (1:1) for 15 minutes, and then washed with PBS for 15 minutes.

[9] = rapamycin 0.3 mg/kg s.c. daily 6 weeks, metformin 250 mg/kg oral daily from 3.5 weeks, vs control group (VH)

SMILES	concentration of IL-6 present in the culture liquid [1]	concentration of TNF-α present in the culture liquid [1]	allogeneic reactive T cell proliferation ([3H]-thymidine uptake, cpm) [2]	amount of IL-17 present in the culture liquid (IL-17)	non-specific cytotoxicity (MTT) [3]	concentration of immunoglobulin (IgG) present in the culture liquid [4]	Treg activity (proportion of Foxp3+CD25+ cells in CD4+ cells) (Treg cells)	secretion of IFN-γ (IFN-γ)	blood glucose level in intraperitoneal glucose tolerance test ([5]; glucose 1 g/kg i.p. after 12 h fasting, metformin 50 mg/kg)	glucose level in insulin tolerance test, start point of measurement [5]	blood glucose level in insulin tolerance test, after the start point ([5]; metformin 50 mg/kg, vs control group (Vehicle))	blood glucose level in intraperitoneal glucose tolerance test (IPGTT) (Sprague-Dawley rats; glucose 1.5 g/kg i.p. after fasting, rapamycin 0.3 mg/kg, metformin 250 mg/kg)	blood glucose level in insulin tolerance test (ITT) (Sprague-Dawley rats; insulin 0.8 U/kg s.c. after 5-hr fasting, rapamycin 0.3 mg/kg, metformin 250 mg/kg)	24-hr urine volume (Sprague-Dawley rats; [9])	body weight (Sprague-Dawley rats; [9])	increase in mitochondrial respiratory rate by FCCP ([6]; FCCP 3 uM, metformin 1 mM)	mitochondrial respiration capacity (oxygen consumption rate) ([6]; before the treatment with oligomycin, vs control group)	mitochondrial membrane potential (JC-1 staining) (NIH3T3 cells [7])	mitochondrial content (MitoTracker) (NIH3T3 cells [8])
CN(C)C(=N)NC(=N)N [metformin]	reduced	reduced	reduced the cpm values	reduced	no non-specific cytotoxicity	reduced	increased	reduced											
CO[C@H]1C[C@@H]2CC[C@@H](C)[C@@](O)(O2)C(=O)C(=O)N2CCCC[C@H]2C(=O)O[C@H]([C@H](C)C[C@@H]2CC[C@@H](O)[C@H](OC)C2)CC(=O)[C@H](C)/C=C(\C)[C@@H](O)[C@@H](OC)C(=O)[C@H](C)C[C@H](C)/C=C/C=C/C=C/1C [rapamycin]	reduced	reduced	reduced the cpm values	reduced	no non-specific cytotoxicity	reduced	increased	reduced	the highest	the highest	maintained at similar levels	highest blood glucose level among the three groups	highest blood glucose level among the three groups	significantly increased	significant reductions	remarkably low	reduced respiration capacity compared with the control group	not normally maintained	reduced
